Results published in US6914045B2, “Glycopeptide antibiotics” (Wyeth Holdings Corporation, priority 2001, dated 2005).
Values after ≈ are worked out from the molar mass of the structure shown.

Experiments:
Experiment in all cases: in vitro antibacterial evaluation, MIC by broth dilution
Type in all cases: cell-based
Staphylococcus sp. = settings: broth dilution, 18 hours at 35° C.
Procedure, shortened: (§1)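 Step 1: dilute antibiotic across 64-0.06 μg/mL in Muller-Hinton II […]. Step 2: inoculate at 5×10^5 CFU/mL.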

Enterococcus sp. = settings: broth dilution, 18 hours at 35° C.
Procedure, shortened: as §1

Streptococcus sp. = settings: broth dilution, 18 hours at 35° C.
Procedure, shortened: as §1

Escherichia coli = settings: 18 hours at 35° C.

## CC(c1ccccc1)C1NC(=O)CNC(=O)C(CO)NC(=O)C(C(O)C2CNC(=N)N2C2OC(CO)C(O)C(O)C2O)NC(=O)C(C(O)C2CNC(=N)N2)NC(=O)C(Cc2ccc(OC3OC(CO)C(OC4OC(COCC=C(c5ccccc5)c5ccccc5)C(O)C(O)C4O)C(O)C3O)cc2)NC1=O (stereo not shown) [Example 241]
Staphylococcus sp.
  MIC Coagulase Negative Staphylococcus (GC 4547): 2 µg/mL (≈ 1.34 µM)
  MIC Coagulase Negative Staphylococcus (GC 4548): 1 µg/mL (≈ 0.672 µM)
  MIC Coagulase Negative Staphylococcus (GC 4549): 2 µg/mL (≈ 1.34 µM)
  MIC Coagulase Negative Staphylococcus (GC 4551): 4 µg/mL (≈ 2.69 µM)
  MIC Coagulase Negative Staphylococcus (GC 6257): 2 µg/mL (≈ 1.34 µM)
  MIC Staphylococcus aureus (ATCC 29213): 2 µg/mL (≈ 1.34 µM)
  MIC Staphylococcus aureus (GC 1131): 2 µg/mL (≈ 1.34 µM)
  MIC Staphylococcus aureus (GC 3051): 2 µg/mL (≈ 1.34 µM)
  MIC Staphylococcus aureus (GC 3053): 2 µg/mL (≈ 1.34 µM)
  MIC Staphylococcus aureus (GC 4541): 2 µg/mL (≈ 1.34 µM)
  MIC Staphylococcus aureus (GC 4542): 2 µg/mL (≈ 1.34 µM)
  MIC Staphylococcus aureus (GC 4544): 2 µg/mL (≈ 1.34 µM)
  MIC Staphylococcus aureus (GC 4545): 2 µg/mL (≈ 1.34 µM)
  MIC Staphylococcus aureus-SMITH (GC 4543): 2 µg/mL (≈ 1.34 µM)
  MIC Staphylococcus haemolyticus (GC 4546): 2 µg/mL (≈ 1.34 µM)
Staphylococcus sp.; strain ATCC 29213
  MIC Staphylococcus aureus (ATCC 29213): 2 µg/mL (≈ 1.34 µM)
Staphylococcus sp.; strain GC 1131
  MIC Staphylococcus aureus (GC 1131): 2 µg/mL (≈ 1.34 µM)
Staphylococcus sp.; strain GC 3051
  MIC Staphylococcus aureus (GC 3051): 2 µg/mL (≈ 1.34 µM)
Staphylococcus sp.; strain GC 3053
  MIC Staphylococcus aureus (GC 3053): 2 µg/mL (≈ 1.34 µM)
Staphylococcus sp.; strain GC 4541
  MIC Staphylococcus aureus (GC 4541): 2 µg/mL (≈ 1.34 µM)
Staphylococcus sp.; strain GC 4542
  MIC Staphylococcus aureus (GC 4542): 2 µg/mL (≈ 1.34 µM)
Staphylococcus sp.; strain GC 4543
  MIC Staphylococcus aureus-SMITH (GC 4543): 2 µg/mL (≈ 1.34 µM)
Staphylococcus sp.; strain GC 4544
  MIC Staphylococcus aureus (GC 4544): 2 µg/mL (≈ 1.34 µM)
Staphylococcus sp.; strain GC 4545
  MIC Staphylococcus aureus (GC 4545): 2 µg/mL (≈ 1.34 µM)
Staphylococcus sp.; strain GC 4546
  MIC Staphylococcus haemolyticus (GC 4546): 2 µg/mL (≈ 1.34 µM)
Staphylococcus sp.; strain GC 4547
  MIC Coagulase Negative Staphylococcus (GC 4547): 2 µg/mL (≈ 1.34 µM)
Staphylococcus sp.; strain GC 4548
  MIC Coagulase Negative Staphylococcus (GC 4548): 1 µg/mL (≈ 0.672 µM)
Staphylococcus sp.; strain GC 4549
  MIC Coagulase Negative Staphylococcus (GC 4549): 2 µg/mL (≈ 1.34 µM)
Staphylococcus sp.; strain GC 4551
  MIC Coagulase Negative Staphylococcus (GC 4551): 4 µg/mL (≈ 2.69 µM)
Staphylococcus sp.; strain GC 6257
  MIC Coagulase Negative Staphylococcus (GC 6257): 2 µg/mL (≈ 1.34 µM)
Enterococcus sp.
  MIC Enterococcus avium (GC 4558): 4 µg/mL (≈ 2.69 µM)
  MIC Enterococcus faecalis (ATCC 29212): 4 µg/mL (≈ 2.69 µM)
  MIC Enterococcus faecalis (GC 2242): 4 µg/mL (≈ 2.69 µM)
  MIC Enterococcus faecalis (GC 2691): 4 µg/mL (≈ 2.69 µM)
  MIC Enterococcus faecalis (GC 3059): 2 µg/mL (≈ 1.34 µM)
  MIC Enterococcus faecalis (GC 4552): 4 µg/mL (≈ 2.69 µM)
  MIC Enterococcus faecalis (GC 4553): 4 µg/mL (≈ 2.69 µM)
  MIC Enterococcus faecalis (GC 4554): 4 µg/mL (≈ 2.69 µM)
  MIC Enterococcus faecalis (GC 6189): 2 µg/mL (≈ 1.34 µM)
  MIC Enterococcus faecium (GC 2243): 4 µg/mL (≈ 2.69 µM)
  MIC Enterococcus faecium (GC 4556): 4 µg/mL (≈ 2.69 µM)
  MIC Enterococcus faecium (GC 4557): 2 µg/mL (≈ 1.34 µM)
Enterococcus sp.; strain ATCC 29212
  MIC Enterococcus faecalis (ATCC 29212): 4 µg/mL (≈ 2.69 µM)
Enterococcus sp.; strain GC 2243
  MIC Enterococcus faecium (GC 2243): 4 µg/mL (≈ 2.69 µM)
Enterococcus sp.; strain GC 4552
  MIC Enterococcus faecalis (GC 4552): 4 µg/mL (≈ 2.69 µM)
Enterococcus sp.; strain GC 4553
  MIC Enterococcus faecalis (GC 4553): 4 µg/mL (≈ 2.69 µM)
Enterococcus sp.; strain GC 4554
  MIC Enterococcus faecalis (GC 4554): 4 µg/mL (≈ 2.69 µM)
Enterococcus sp.; strain GC 4556
  MIC Enterococcus faecium (GC 4556): 4 µg/mL (≈ 2.69 µM)
Enterococcus sp.; strain GC 4557
  MIC Enterococcus faecium (GC 4557): 2 µg/mL (≈ 1.34 µM)
Enterococcus sp.; strain GC 4558
  MIC Enterococcus avium (GC 4558): 4 µg/mL (≈ 2.69 µM)
Enterococcus sp.; strain GC 6189
  MIC Enterococcus faecalis (GC 6189): 2 µg/mL (≈ 1.34 µM)
Enterococcus sp.; inoculum 5×10^5 CFU/mL, strain GC 2242
  MIC Enterococcus faecalis (GC 2242): 4 µg/mL (≈ 2.69 µM)
Enterococcus sp.; inoculum 5×10^5 CFU/mL, strain GC 2691
  MIC Enterococcus faecalis (GC 2691): 4 µg/mL (≈ 2.69 µM)
Enterococcus sp.; inoculum 5×10^5 CFU/mL, strain GC 3059
  MIC Enterococcus faecalis (GC 3059): 2 µg/mL (≈ 1.34 µM)
Streptococcus sp.
  MIC Streptococcus agalactiae (GC 4564): <0.06 µg/mL
  MIC Streptococcus pneumoniae (ATCC 6301): <0.06 µg/mL
  MIC Streptococcus pneumoniae (GC 1894): <0.06 µg/mL
  MIC Streptococcus pneumoniae (GC 4565): <0.06 µg/mL
  MIC Streptococcus pyogenes (GC 4563): <0.06 µg/mL
Streptococcus sp.; inoculum 5×10^5 CFU/mL, strain ATCC 6301
  MIC Streptococcus pneumoniae (ATCC 6301): <0.06 µg/mL
Streptococcus sp.; inoculum 5×10^5 CFU/mL, strain GC 1894
  MIC Streptococcus pneumoniae (GC 1894): <0.06 µg/mL
Streptococcus sp.; inoculum 5×10^5 CFU/mL, strain GC 4563
  MIC Streptococcus pyogenes (GC 4563): <0.06 µg/mL
Streptococcus sp.; inoculum 5×10^5 CFU/mL, strain GC 4564
  MIC Streptococcus agalactiae (GC 4564): <0.06 µg/mL
Streptococcus sp.; inoculum 5×10^5 CFU/mL, strain GC 4565
  MIC Streptococcus pneumoniae (GC 4565): <0.06 µg/mL
Escherichia coli
  MIC Escherichia coli (ATCC 25922): >64 µg/mL
  MIC Escherichia coli (GC 4559): >64 µg/mL
  MIC Escherichia coli (GC 4560): 2 µg/mL (≈ 1.34 µM)
